# Data from patent US20100016247A1, “USING BUDDING YEAST TO SCREEN FOR INHIBITORS OF AURORA KINASES” (FLORIDA STATE UNIVERSITY RESEARCH FOUNDATION, priority 2008, published 2010).
# Where two headings read alike, the source gives them in different places.
# Tests used:
# [1] = tested on: ipl1-321 mutant yeast cells; test: Growth of ipl1-321 mutant yeast cultures by OD600; type: cell-based, Saccharomyces cerevisiae; details: 25° C.; for growth inhibition of ipl1-321 cells: 10 μg/ml, 24 hr, vs untreated control
# Experimental: (§1) Wild-type and ipl1-321 mutant yeast strains are used for this purpose. […] After incubation at about 25° C. for about 24 hrs, the growth of the yeast cultures in the presence of tested compounds is determined by measuring OD600.
# Hela cells = test: Cell growth assay (MTT, cell counting); type: cell-based, human; details: for growth inhibition by MTT assay: Hela, 48 hours
# Experimental: (§2) A549, Hela and MCF-7 cell lines are cultured in 96-well tissue culture plates at a cell density of 5,000 cells per well in RPMI-I640 or MEM containing 10% fetus bovine serum and 2 mM L-glutamine. After attachment overnight, the medium is replaced and cells are incubated with increasing concentrations of Jadomycin B or its two derivatives, Jadomycin S and T (ranging from 10^−4 M to 10^−8 M). After treatment for 48 hours, 3-(4,5-dimethylthiazol-2-yl)-2,5-diphenyltetrazolium bromide (MTT) assays are carried out in triplication. The concentration-viability curves are fitted and IC50 values are determined. Cells are also plated at a cell density of 10,000 cells per well in six-well tissue culture plates. After attachment overnight, cells are treated with 0, 5, or 10 μg/ml Jadomycin B for 96 hours. Cells are detached every 24 hr by trypsinization to count the cell number. All experiments are repeated three times.
# MCF-7 cells = test: Cell growth assay (MTT, cell counting); type: cell-based, human; details: for growth inhibition by MTT assay: MCF-7, 48 hours
# Experimental: as §2
# A549 cells [2] = test: Cell growth assay (MTT, cell counting); type: cell-based, human; details: for growth inhibition by MTT assay: A549, 48 hours
# Experimental: as §2
# [3] = target: T1, purified recombinant human Aurora-B kinase (Homo sapiens, UniProt Q96GD4); test: In vitro Aurora-B kinase activity assay (ELISA kit); type: biochemical; details: for inhibitory effect on Aurora-B: same condition as FIG. 3A, data not shown
# T1 construct: purchased Cell Signaling Technology
# Experimental: To determine the inhibition of Aurora-B kinase activity by Jadomycin B, an Aurora-B kinase activity assay kit (Cell Signaling Technology) is used according to the manufacturer's instruction. Briefly, 100 ng of purified recombinant human Aurora-B kinase is added to a 100 μl reaction mixture containing 1× kinase buffer and 25 μM cold ATP in the presence of different concentrations of Jadomycin B (ranging from 10^−4 M to 10^−10 M). After incubation at room temperature for 15 min, biotinylated peptide substrate (Cell Signaling Technology) is added to each reaction mixture at a final concentration of 1.5 μM, and the mixtures are further incubated for 30 min. A parallel control experiment is performed under the same conditions without Jadomycin B. The reaction is stopped by addition of 50 μM EDTA (pH 8). The 25 μl reaction mixture is then transferred to a streptavidin-coated 96-well plate (PerkinElmer, Inc) and incubated at room temperature for 60 min. After washing three times with PBS/T, the […] (Ser10) antibody (Cell Signaling Technology) is added to the plate for further incubation at 37° C. for 120 min. After washing, FITC-labeled secondary antibody (Santa Cruz) is added. After incubation at room temperature for 30 min, the plate is finally washed five times, and the fluorescence signal is determined with BMG Polarstar Galaxy (Germany) at 535 nm. The inhibition ratio by Jadomycin B at each concentration is calculated according to the following equation: % Inhibition=100×(1−countstreated/countscontrol). The inhibition curve is then fitted by Originpro7.5 program and the IC50 value of Jadomycin B is determined.
# To determine the mode of inhibition of Aurora-B by Jadomycin B, the kinase activity is also examined in the presence of different concentrations of ATP (25, 50, 75, 100, and 200 μM). The inhibition ratio of Aurora-B kinase activity by Jadomycin B at various concentrations is calculated as described above and the inhibition curve is fitted. The IC50 value of Jadomycin B at each ATP concentration is then determined and a linear fit is made with all five IC50 values. The Ki is determined from the intercept of the plot of [ATP] versus IC50 values (IC50=Ki/Km[ATP]+Ki).
# HepG2 cells = details: cited from earlier work
# A549 cells [4] = test: FACS analysis of apoptosis and cell cycle distribution; type: cell-based, human; details: 5 μg/ml
# Experimental: A549 cells in exponential growth phase are treated with 0 or 5 μg/ml Jadomycin B for up to 48 hours. Cells collected at the indicated times are fixed and stained with Propidium Iodide (PI). FACS analysis is performed to determine the percentage of apoptotic cells and cell cycle distribution by using the EPICS XL flow cytometer and System II software.
# H460 cells = details: cited from earlier work
# wild-type yeast cells = test: Growth of wild-type yeast cultures by OD600; type: cell-based, Saccharomyces cerevisiae; details: 25° C.
# Experimental: as §1
# [5] = tested on: phosphorylated histone H3 (Ser10) in Hela cells; test: Western blotting of phosphorylated histone H3 (Ser10); type: cell-based, human; details: 10 μg/ml, 24 hours
# Experimental: (§3) A549 cells in the exponential growth phase are treated with 0, 1.25, 2.5, 5, 7.5, or 10 μg/ml Jadomycin B for 24 hours, while Hela and HepG2 cells are treated with 0 or 10 μg/ml of Jadomycin B. Cells are washed with cold PBS and whole-cell extracts are prepared with RIPA lysis buffer containing 60 μg/ml of PMSF. Equal amounts of protein (30 μg) are resolved with 15% SDS-PAGE. After transfer, the membranes are incubated overnight with primary antibodies (1:1000) against phosphorylated histone H3 (Ser10) (Cell Signaling Technology) and β-tubulin (Santa Cruz Biotechnology) at 4° C. The membranes are then incubated with HRP-conjugated goat anti-rabbit secondary antibody (Santa Cruz) at 1:200 followed by Chemiluminescence staining (Millipore).
# [6] = tested on: phosphorylated histone H3 (Ser10) in HepG2 cells; test: as above; type: cell-based, human; details: HepG2, 10 μg/ml, 24 hours
# Experimental: as §3
# IM-9 cells = details: cited from earlier work
# IM9/Bcl-2 cells = details: cited from earlier work
# A549 cells [7] = test: Hoechst 33342 staining, chromatin condensation and apoptotic body; type: cell-based, human; details: 5 μg/ml, 48 hours
# Experimental: Hoechst 33342 is a fluorescence dye that can be embedded in DNA double helix and emit blue fluorescence when excited with UV light. Treated and untreated A549 cell samples with 5 μg/ml Jadomycin B for 48 hours are stained with 100 ng/ml Hoechst 33342 for 10 minutes in dark. Stained cells are visualized with a Nikon ECLIPSS TE2000-U fluorescence microscope (Japan) at 100× and 400× magnification. Apoptotic cells show brightly stained nuclei because of the chromosome condensation and the appeared apoptotic bodies.
# [8] = tested on: phosphorylated histone H3 (Ser10) in A549 cells; test: Western blotting of phosphorylated histone H3 (Ser10); type: cell-based, human; details: 24 hr
# Experimental: Cells are washed with cold PBS and whole-cell extracts are prepared with RIPA lysis buffer containing 60 μg/ml of PMSF. Equal amounts of protein (30 μg) are resolved with 15% SDS-PAGE. After transfer, the membranes are incubated overnight with primary antibodies (1:1000) against phosphorylated histone H3 (Ser10) (Cell Signaling Technology) and β-tubulin (Santa Cruz Biotechnology) at 4° C. The membranes are then incubated with HRP-conjugated goat anti-rabbit secondary antibody (Santa Cruz) at 1:200 followed by Chemiluminescence staining (Millipore).
# T1 sequence (Q96GD4 whole entry): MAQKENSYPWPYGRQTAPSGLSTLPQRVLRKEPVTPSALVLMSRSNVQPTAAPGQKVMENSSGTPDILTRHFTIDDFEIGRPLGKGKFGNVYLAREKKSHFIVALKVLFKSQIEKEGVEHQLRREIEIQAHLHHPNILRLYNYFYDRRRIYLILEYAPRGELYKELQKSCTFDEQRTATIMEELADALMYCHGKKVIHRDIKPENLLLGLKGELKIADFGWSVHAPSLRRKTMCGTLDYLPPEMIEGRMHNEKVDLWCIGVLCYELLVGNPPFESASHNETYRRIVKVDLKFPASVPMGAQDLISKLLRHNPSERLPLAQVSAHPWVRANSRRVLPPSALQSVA
smiles,measurement,setting,value
"Cc1cc(O)c2c(c1)[C@@H]1OC(=O)[C@H](CO)N1C1=C2C(=O)c2cccc(O[C@H]3C[C@@H](O)[C@@H](O)[C@H](C)O3)c2C1=O [Jadomycin S, reference compound]",growth inhibition of ipl1-321 cells,[1],neither shows inhibitory effect
same,growth inhibition by MTT assay,Hela cells,inhibited growth
same,growth inhibition by MTT assay,MCF-7 cells,inhibited growth
same,growth inhibition by MTT assay,A549 cells [2],inhibited growth
same,inhibitory effect on Aurora-B,[3],no inhibitory activity is detected
CC[C@H](C)[C@H]1C(=O)O[C@H]2c3cc(C)cc(O)c3C3=C(C(=O)c4c(O[C@H]5C[C@@H](O)[C@@H](O)[C@H](C)O5)cccc4C3=O)N12 [Jadomycin B],inhibition of proliferation,HepG2 cells,inhibits the proliferation
same,growth inhibition of ipl1-321 mutant cells,"[1]; 5 μg/ml, 24 hours",50%
same,growth inhibition of ipl1-321 cells,[1],almost completely
same,"growth curve, sensitivity of cell line","Hela cells; Hela, 0, 5 or 10 μg/ml, 96 hours, cell counting",sensitive
same,"growth curve, sensitivity of cell line","MCF-7 cells; MCF-7, 0, 5 or 10 μg/ml, 96 hours, cell counting",sensitive
same,"growth curve, sensitivity of cell line","A549 cells [2]; A549, 0, 5 or 10 μg/ml, 96 hours, cell counting",sensitive
same,growth inhibition by MTT assay,A549 cells [2],most sensitive
same,effect on cell cycle,A549 cells [4],does not block cell cycle
same,increase of cells in S phase,A549 cells [4],2%
same,"percentage of apoptotic cells, treated versus untreated",A549 cells [4]; 3 hr,almost no difference
same,portion of apoptotic cells (sub-G1),A549 cells [4]; 12 hr,17.8%
same,portion of apoptotic cells (sub-G1),A549 cells [4]; 24 hr,44%
same,portion of apoptotic cells (sub-G1),A549 cells [4]; 48 hr,71.7%
same,inhibition of proliferation,H460 cells,inhibits the proliferation
same,growth inhibition of wild-type cells,"wild-type yeast cells; 5 μg/ml, 24 hours",little growth inhibition
same,growth inhibition of wild-type cells,"wild-type yeast cells; 10 μg/ml, 24 hr",uninhibited
same,growth inhibition of wild-type cells,"wild-type yeast cells; 100 μg/ml, 24 hours",60%
same,levels of phosphorylated histone H3,[5],significant decrease
same,levels of phosphorylated histone H3,[6],significant decrease
same,inhibition of proliferation,IM-9 cells,inhibits the proliferation
same,IC50,"[3]; 25 μM ATP, ATP titration FIG. 3B, read-out: IC50 for Aurora-B at given ATP concentration",12.5 µM
same,IC50,"[3]; 25 μM ATP, fitted inhibition curve FIG. 3A, read-out: IC50 for inhibition of Aurora-B kinase activity",10.5 µM
same,IC50,"[3]; 50 μM ATP, read-out: IC50 for Aurora-B at given ATP concentration",16.6 µM
same,IC50,"[3]; 75 μM ATP, read-out: IC50 for Aurora-B at given ATP concentration",24.5 µM
same,IC50,"[3]; 100 μM ATP, read-out: IC50 for Aurora-B at given ATP concentration",32.2 µM
same,IC50,"[3]; 200 μM ATP, read-out: IC50 for Aurora-B at given ATP concentration",53.1 µM
same,Ki,[3]; from linear fit of IC50 versus [ATP],6.8 µM
same,mode of inhibition of Aurora-B kinase,"[3]; with respect to ATP, 5 ATP concentrations",competitive inhibition
same,inhibition of proliferation,IM9/Bcl-2 cells,inhibits the proliferation
same,apoptosis by Hoechst 33342 staining,A549 cells [7],more and more cells underwent apoptosis
same,reduction of H3 phosphorylation (grayscale scanning),"[8]; A549, 2 μg/ml",28%
same,phosphorylated histone H3 band on western blot,"[8]; A549, 10 μg/ml",do not express any detectable phosphorylated histone H3
same,reduction of H3 phosphorylation (grayscale scanning),"[8]; A549, 10 μg/ml",73%
"Cc1cc(O)c2c(c1)[C@@H]1OC(=O)[C@H]([C@H](C)O)N1C1=C2C(=O)c2cccc(O[C@H]3C[C@@H](O)[C@@H](O)[C@H](C)O3)c2C1=O [Jadomycin T, reference compound]",growth inhibition of ipl1-321 cells,[1],neither shows inhibitory effect
same,growth inhibition by MTT assay,Hela cells,inhibited growth
same,growth inhibition by MTT assay,MCF-7 cells,inhibited growth
same,growth inhibition by MTT assay,A549 cells [2],inhibited growth
same,inhibitory effect on Aurora-B,[3],no inhibitory activity is detected
